US8435978B2, “Substituted sulfonamide compounds” (Gruenenthal GmbH, priority 2006, dated 2013)
Structures can show the parent of a compound that is named as a salt.

What was measured:
B1R receptor of the rat = molecular target: T1, B1R receptor of the rat (Rattus norvegicus, UniProt P97583); experiment: Functional study on the bradykinin receptor 1 (B1R), FLIPR Ca2+ assay, rB1R cells; assay type: cell-based; settings: agonist Des-Arg9-bradykinin 100 nM, % inhibition compared with the maximum achievable inhibition; for inhibition at 10 µM: CHO-K1, test substance 10 μM, read-out: B1R Antagonism, rat [10 μM] % Inhibition
T1 construct: host or cells: CHO K1 cells (Chinese hamster ovary), stably transfected
T1 sequence (P97583 1-337): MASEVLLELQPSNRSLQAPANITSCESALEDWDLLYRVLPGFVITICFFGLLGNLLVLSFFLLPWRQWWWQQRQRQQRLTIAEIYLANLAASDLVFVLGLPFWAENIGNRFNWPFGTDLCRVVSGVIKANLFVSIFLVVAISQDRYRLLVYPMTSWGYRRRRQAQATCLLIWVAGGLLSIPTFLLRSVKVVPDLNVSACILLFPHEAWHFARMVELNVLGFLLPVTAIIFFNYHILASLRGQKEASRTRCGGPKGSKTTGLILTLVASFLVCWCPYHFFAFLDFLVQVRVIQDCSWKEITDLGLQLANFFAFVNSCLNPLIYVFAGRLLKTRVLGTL
How it was run: (§1)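 FLIPR Ca2+ read-out (Fluo-4, peak fluorescence) in stably transfected CHO K1 cells. Compounds at 10 μM, then 10 min later agonist challenge: human B1R with Lys-Des-Arg9-bradykinin 0.5 nM, rat B1R with Des-Arg9-bradykinin 100 nM; reported as % activation or % of maximal inhibition.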

human B1R receptor = molecular target: T2, human B1R receptor (Homo sapiens, UniProt P46663); experiment: Functional study on the bradykinin receptor 1 (B1R), FLIPR Ca2+ assay, hB1R cells; assay type: cell-based; settings: agonist Lys-Des-Arg9-bradykinin 0.5 nM, % inhibition compared with the maximum achievable inhibition; for inhibition at 10 µM: CHO-K1, test substance 10 μM, read-out: B1R Antagonism, human [10 μM] % Inhibition
T2 construct: host or cells: CHO K1 cells (Chinese hamster ovary), stably transfected
T2 sequence (P46663 1-353): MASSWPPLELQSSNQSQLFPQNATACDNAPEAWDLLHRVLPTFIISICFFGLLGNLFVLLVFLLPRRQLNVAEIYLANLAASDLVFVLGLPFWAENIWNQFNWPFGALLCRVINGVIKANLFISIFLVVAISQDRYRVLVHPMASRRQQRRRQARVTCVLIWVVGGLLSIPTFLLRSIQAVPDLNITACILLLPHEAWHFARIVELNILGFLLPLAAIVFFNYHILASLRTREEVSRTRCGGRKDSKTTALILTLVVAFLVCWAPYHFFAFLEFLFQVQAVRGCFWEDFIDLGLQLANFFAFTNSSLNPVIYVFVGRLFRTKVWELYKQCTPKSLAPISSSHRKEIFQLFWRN
How it was run: as §1

| inhibition at 10 µM (B1R receptor of the rat) | inhibition at 10 µM (human B1R receptor) | B1R Antagonism, rat [10 μM] % Inhibition (B1R receptor of the rat; test substance 10 μM, rB1R CHO K1 cells) | B1R Antagonism, human [10 μM] % Inhibition (human B1R receptor; test substance 10 μM, hB1R CHO K1 cells) | Structure (SMILES) |
| --- | --- | --- | --- | --- |
| 99.8% | 98.7% |  |  | COc1cc(C)c(S(=O)(=O)N2CCCCC2COCC(=O)N2CCCN(C)CC2)c(C)c1 (stereo not drawn) [Example 375, 2-((1-(4-methoxy-2,6-dimethylphenylsulfonyl)piperidin-2-yl)methoxy)-1-(4-methyl-1,4-diazepan-1-yl)ethanone] |
| 97.8% | 100% |  |  | COc1cc(C)c(S(=O)(=O)N2CCCCC2COCC(=O)NC(CN2CCN(C)CC2)c2ccccc2)c(C)c1 (stereo not drawn) [Example 263, 2-((1-(4-methoxy-2,6-dimethylphenylsulfonyl)piperidin-2-yl)methoxy)-N-(2-(4-methylpiperazin-1-yl)-1-phenylethyl)acetamide] |
| 73.4% | 26.2% |  |  | COc1cc(C)c(S(=O)(=O)N2CCCC2COCC(=O)Nc2ccc3c(c2)ncn3C)c(C)c1 (stereo not drawn) [Example 494, 2-((1-(4-methoxy-2,6-dimethylphenylsulfonyl)pyrrolidin-2-yl)methoxy)-N-(1-methyl-1H-benzo[d]imidazol-5-yl)acetamide] |
| 102% | 93% |  |  | COc1cc(C)c(S(=O)(=O)N2CCCCC2COCC(=O)N2CCN(c3ccc(C)c(C)c3)CC2)c(C)c1 (stereo not drawn) [Example 512, 1-(4-(3,4-dimethylphenyl)piperazin-1-yl)-2-((1-(4-methoxy-2,6-dimethylphenylsulfonyl)piperidin-2-yl)methoxy)ethanone] |
| 93.2% | 41.8% |  |  | COc1cc(C)c(S(=O)(=O)N2CCCC2COCC(=O)NC(CN2CCOCC2)c2ccccc2)c(C)c1 (stereo not drawn) [Example 500, 2-((1-(4-methoxy-2,6-dimethylphenylsulfonyl)pyrrolidin-2-yl)methoxy)-N-(2-morpholino-1-phenylethyl)acetamide] |
|  |  | 99.49% | 53.94% | COc1cc(C)c(S(=O)(=O)N2CCCCC2COCC(=O)N2Cc3ccncc3C2)c(C)c1 (stereo not drawn) [Example 206, 2-((1-(4-methoxy-2,6-dimethylphenylsulfonyl)piperidin-2-yl)methoxy)-1-(1H-pyrrol[3,4-c]pyridin-2(3H)-yl)ethanone] |
| 104% | 97% |  |  | COc1cc(C)c(S(=O)(=O)N2CCCCC2COCC(=O)NCc2ccc(N3CCCCC3)cc2)c(C)c1 (stereo not drawn) [Example 14, 2-[1-(4-methoxy-2,6-dimethyl-phenylsulfonyl)-piperidin-2-ylmethoxy]-N-(4-piperidin-1-yl-benzyl)-acetamide] |
| 107% | 38.8% |  |  | COc1cc(C)c(S(=O)(=O)N2CCCCC2COCC(=O)Nc2cc(-c3cccs3)n[nH]2)c(C)c1 (stereo not drawn) [Example 539, 2-((1-(4-methoxy-2,6-dimethylphenylsulfonyl)piperidin-2-yl)methoxy)-N-(3-(thiophen-2-yl)-1H-pyrazol-5-yl)acetamide] |
| 101% | 103% |  |  | COc1cc(C)c(S(=O)(=O)N2CCCCC2COCC(=O)N2CCN(Cc3cccc(C#N)c3)CC2)c(C)c1 (stereo not drawn) [Example 92, 3-((4-(2-((1-(4-methoxy-2,6-dimethylphenylsulfonyl)piperidin-2-yl)methoxy)acetyl)-piperazin-1-yl)methyl)benzonitrile hydrochloride] |
| 98.8% | 104% |  |  | COc1cc(C)c(S(=O)(=O)N2CCCCC2COCC(=O)N2CCN(CCc3ccccc3)CC2)c(C)c1 (stereo not drawn) [Example 373, 2-((1-(4-methoxy-2,6-dimethylphenylsulfonyl)piperidin-2-yl)methoxy)-1-(4-phenethylpiperazin-1-yl)ethanone] |
| 84.6% | 97.1% |  |  | COc1cc(C)c(S(=O)(=O)N2CCCC2COCC(=O)N2CCC(c3cccnc3)C2)c(C)c1 (stereo not drawn) [Example 272, 2-((1-(4-methoxy-2,6-dimethylphenylsulfonyl)pyrrolidin-2-yl)methoxy)-1-(3-(pyridin-3-yl)pyrrolidin-1-yl)ethanone] |

The next lines start with the molecule.

| Structure (SMILES) | inhibition at 10 µM (B1R receptor of the rat) | inhibition at 10 µM (human B1R receptor) | B1R Antagonism, rat [10 μM] % Inhibition (B1R receptor of the rat; test substance 10 μM, rB1R CHO K1 cells) | B1R Antagonism, human [10 μM] % Inhibition (human B1R receptor; test substance 10 μM, hB1R CHO K1 cells) |
| --- | --- | --- | --- | --- |
| O=C(COCC1CCCN1S(=O)(=O)c1c(Cl)cccc1Cl)N1CCC(N2CCCCC2)CC1 (stereo not drawn) [Example 337, 1-(1,4′-bipiperidin-1′-yl)-2-((1-(2,6-dichlorophenylsulfonyl)pyrrolidin-2-yl)methoxy)ethanone] | 104% | 104% |  |  |
| CN1CCC(N2CCN(C(=O)COCC3CCCCN3S(=O)(=O)c3c(Cl)nc4sccn34)CC2)CC1 (stereo not drawn) [Example 129, 2-((1-(6-chloroimidazo[2,1-b]thiazol-5-ylsulfonyl)piperidin-2-yl)methoxy)-1-(4-(1-methylpiperidin-4-yl)piperazin-1-yl)ethanone] | 31.2% | 0.03% |  |  |
| CN1CCC(N2CCN(C(=O)COCC3CCCCN3S(=O)(=O)c3cccc4ccccc34)CC2)CC1 (stereo not drawn) [Example 110, 1-(4-(1-methylpiperidin-4-yl)piperazin-1-yl)-2-((1-(naphthalen-1-ylsulfonyl)piperidin-2-yl)methoxy)ethanone] | 102% | 102% |  |  |
| CN(C)Cc1ccc(CNC(=O)COCC2CCCCN2S(=O)(=O)c2c(Cl)cc(Cl)cc2Cl)cc1 (stereo not drawn) [Example 37, N-(4-dimethylaminomethyl-benzyl)-2-[1-(2,4,6-trichloro-phenylsulfonyl)-piperidin-2-ylmethoxy]-acetamide] | 103% | 78.2% |  |  |
| O=C(COCC1CCCN1S(=O)(=O)c1c(Cl)cccc1Cl)N1CCC(CCN2CCCCC2)CC1 (stereo not drawn) [Example 286, 2-((1-(2,6-dichlorophenylsulfonyl)pyrrolidin-2-yl)methoxy)-1-(4-(2-(piperidin-1-yl)ethyl)piperidin-1-yl)ethanone] | 97.9% | 104% |  |  |
| COc1cc(C)c(S(=O)(=O)N2CCCC2COCC(=O)NCC(c2ccc(C(F)(F)F)cc2)N(C)C)c(C)c1 (stereo not drawn) [Example 495, N-(2-(dimethylamino)-2-(4-(trifluoromethyl)phenyl)ethyl)-2-((1-(4-methoxy-2,6-dimethylphenylsulfonyl)pyrrolidin-2-yl)methoxy)acetamide] | 95.7% | 30.7% |  |  |
| O=C(COCC1CCCCN1S(=O)(=O)c1c(Cl)cccc1Cl)N1CCN(c2ccc(C(F)(F)F)cn2)CC1 (stereo not drawn) [Example 484, 2-((1-(2,6-dichlorophenylsulfonyl)piperidin-2-yl)methoxy)-1-(4-(5-(trifluoromethyl)pyridin-2-yl)piperazin-1-yl)ethanone] | 101% | 75.6% |  |  |
| Cc1cc(C)c(S(=O)(=O)N2CCCCC2COCC(=O)N2CCCCC2Cc2ncccc2C)c(C)c1 (stereo not drawn) [Example 229, 2-((1-(mesitylsulfonyl)piperidin-2-yl)methoxy)-1-(2-((3-methylpyridin-2-yl)methyl)piperidin-1-yl)ethanone] | 101% | 101% |  |  |
| CN1CCC(N2CCN(C(=O)COCC3CCCCN3S(=O)(=O)c3csc4ccccc34)CC2)CC1 (stereo not drawn) [Example 137, 2-((1-(benzo[b]thiophen-3-ylsulfonyl)piperidin-2-yl)methoxy)-1-(4-(1-methylpiperidin-4-yl)piperazin-1-yl)ethanone] | 98.8% | 102% |  |  |
| CN(C)c1ccc(C2CCCN2C(=O)COCC2CCCCN2S(=O)(=O)c2c(Cl)cccc2Cl)cc1 (stereo not drawn) [Example 528, 2-((1-(2,6-dichlorophenylsulfonyl)piperidin-2-yl)methoxy)-1-(2-(4-(dimethylamino)phenyl)pyrrolidin-1-yl)ethanone] | 102% | 88.2% |  |  |
